The target of the assay is hGLP-1R (Homo sapiens, UniProt P43220). The assay can be described thus: Cell agonistic activity at GLP-1 receptor (Example 7). In kind it is cell-based.

Here are results for 6 compounds from patent US20240239863A1, “GIP RECEPTOR AGONIST AND USE THEREOF” (HANGZHOU ZHONGMEIHUADONG PHARMACEUTICAL CO., LTD., priority 2022, published 2024).

Non-standard residues stand in square brackets, D forms with d. Residues, ends and D or L forms follow the SMILES beside them. Aib = CC(C)(N)C(=O)O

Chain of hGLP-1R (P43220 24-463): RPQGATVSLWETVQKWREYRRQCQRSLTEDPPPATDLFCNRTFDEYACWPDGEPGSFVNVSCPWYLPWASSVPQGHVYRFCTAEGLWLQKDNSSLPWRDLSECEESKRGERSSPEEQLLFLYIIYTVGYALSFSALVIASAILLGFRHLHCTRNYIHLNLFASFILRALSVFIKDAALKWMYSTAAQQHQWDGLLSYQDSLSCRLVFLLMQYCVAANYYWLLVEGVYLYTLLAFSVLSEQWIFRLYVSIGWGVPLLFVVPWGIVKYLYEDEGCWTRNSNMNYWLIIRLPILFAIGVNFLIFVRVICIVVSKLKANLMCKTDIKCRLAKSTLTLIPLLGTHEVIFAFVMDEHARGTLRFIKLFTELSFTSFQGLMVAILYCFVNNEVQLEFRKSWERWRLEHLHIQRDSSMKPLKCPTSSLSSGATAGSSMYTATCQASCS

Take `CC[C@H](C)[C@H](NC(=O)[C@H](CO)NC(=O)[C@H](Cc1ccc(O)cc1)NC(=O)[C@H](CC(=O)O)NC(=O)[C@H](CO)NC(=O)[C@@H](NC(=O)[C@H](Cc1ccccc1)NC(=O)[C@@H](NC(=O)CNC(=O)[C@H](CCC(=O)O)NC(=O)C(C)(C)NC(=O)[C@@H](N)Cc1ccc(O)cc1)[C@@H](C)O)[C@@H](C)CC)C(=O)N[C@@H](C)C(=O)N[C@@H](CC(C)C)C(=O)N[C@@H](CC(=O)O)C(=O)N[C@@H](CCCNC(=N)N)C(=O)N[C@@H](CC(C)C)C(=O)N[C@@H](Cc1c[nH]cn1)C(=O)N[C@@H](CCC(N)=O)C(=O)N[C@@H](CCC(N)=O)C(=O)N[C@@H](CC(=O)O)C(=O)N[C@@H](Cc1ccccc1)C(=O)N[C@H](C(=O)N[C@@H](CC(N)=O)C(=O)N[C@@H](Cc1c[nH]c2ccccc12)C(=O)N[C@@H](CC(C)C)C(=O)N[C@@H](CC(C)C)C(=O)N[C@@H](C)C(=O)N[C@@H](CCC(N)=O)C(=O)N[C@@H](CCCCN)C(=O)NCC(=O)O)C(C)C` [Sequence 18] (H-Y[Aib]EGTFISDYSIALDRLHQQDFVNWLLAQKG-OH; N-terminus and C-terminus assumed): the EC50 – broadly, the concentration that produces a half-maximal response – is over 0.1 nM.

In turn, `CC[C@H](C)[C@H](NC(=O)[C@H](CCCCN)NC(=O)[C@H](CC(=O)O)NC(=O)[C@H](CC(C)C)NC(=O)C(C)(C)NC(=O)[C@@H](NC(=O)[C@H](CO)NC(=O)[C@H](Cc1ccc(O)cc1)NC(=O)[C@H](CC(=O)O)NC(=O)[C@H](CO)NC(=O)[C@@H](NC(=O)[C@H](Cc1ccccc1)NC(=O)[C@@H](NC(=O)CNC(=O)[C@H](CCC(=O)O)NC(=O)C(C)(C)NC(=O)[C@@H](N)Cc1ccc(O)cc1)[C@@H](C)O)[C@@H](C)CC)[C@@H](C)CC)C(=O)N[C@@H](Cc1c[nH]cn1)C(=O)N[C@@H](CCC(N)=O)C(=O)N[C@@H](CCC(=O)O)C(=O)N[C@@H](CC(=O)O)C(=O)N[C@@H](Cc1ccccc1)C(=O)N[C@H](C(=O)N[C@@H](CCCCN)C(=O)N[C@@H](Cc1c[nH]c2ccccc12)C(=O)N[C@@H](CC(C)C)C(=O)N[C@@H](CC(C)C)C(=O)N[C@@H](C)C(=O)N[C@@H](CCC(N)=O)C(=O)N[C@@H](CCCCN)C(=O)NCC(=O)O)C(C)C` [Sequence 1] (H-Y[Aib]EGTFISDYSI[Aib]LDKIHQEDFVKWLLAQKG-OH; N-terminus and C-terminus assumed) returned an EC50 of over 0.1 nM.

For the compound `CC[C@H](C)[C@H](NC(=O)[C@H](CO)NC(=O)[C@H](Cc1ccc(O)cc1)NC(=O)[C@H](CC(=O)O)NC(=O)[C@H](CO)NC(=O)[C@@H](NC(=O)[C@H](Cc1ccccc1)NC(=O)[C@@H](NC(=O)CNC(=O)[C@H](CCC(=O)O)NC(=O)C(C)(C)NC(=O)[C@@H](N)Cc1ccc(O)cc1)[C@@H](C)O)[C@@H](C)CC)C(=O)N[C@@H](C)C(=O)N[C@@H](CC(C)C)C(=O)N[C@@H](CC(=O)O)C(=O)N[C@@H](CCC(=O)O)C(=O)N[C@@H](CC(C)C)C(=O)N[C@@H](Cc1c[nH]cn1)C(=O)N[C@@H](CCC(N)=O)C(=O)N[C@@H](CCCCN)C(=O)N[C@@H](CC(=O)O)C(=O)N[C@@H](Cc1ccccc1)C(=O)N[C@H](C(=O)N[C@@H](CC(N)=O)C(=O)N[C@@H](Cc1c[nH]c2ccccc12)C(=O)N[C@@H](CC(C)C)C(=O)N[C@@H](CC(C)C)C(=O)N[C@@H](C)C(=O)N[C@@H](CCC(N)=O)C(=O)N[C@@H](CCCNC(=N)N)C(=O)NCC(=O)O)C(C)C` [Sequence 6] (H-Y[Aib]EGTFISDYSIALDELHQKDFVNWLLAQRG-OH; N-terminus and C-terminus assumed), the EC50 was over 0.1 nM.

The compound `CC[C@H](C)[C@H](NC(=O)[C@H](CCC(=O)O)NC(=O)[C@H](CC(=O)O)NC(=O)[C@H](CC(C)C)NC(=O)C(C)(C)NC(=O)[C@@H](NC(=O)[C@H](CO)NC(=O)[C@H](Cc1ccc(O)cc1)NC(=O)[C@H](CC(=O)O)NC(=O)[C@H](CO)NC(=O)[C@@H](NC(=O)[C@H](Cc1ccccc1)NC(=O)[C@@H](NC(=O)CNC(=O)[C@H](CCC(=O)O)NC(=O)C(C)(C)NC(=O)[C@@H](N)Cc1ccc(O)cc1)[C@@H](C)O)[C@@H](C)CC)[C@@H](C)CC)C(=O)N[C@@H](Cc1c[nH]cn1)C(=O)N[C@@H](CCC(N)=O)C(=O)N[C@@H](CCCCN)C(=O)N[C@@H](CC(=O)O)C(=O)N[C@@H](Cc1ccccc1)C(=O)N[C@H](C(=O)N[C@@H](CCCCN)C(=O)N[C@@H](Cc1c[nH]c2ccccc12)C(=O)N[C@@H](CC(C)C)C(=O)N[C@@H](CC(C)C)C(=O)N[C@@H](C)C(=O)N[C@@H](CCC(N)=O)C(=O)N[C@@H](CCCCN)C(=O)NCC(=O)O)C(C)C` [Sequence 2] (H-Y[Aib]EGTFISDYSI[Aib]LDEIHQKDFVKWLLAQKG-OH; N-terminus and C-terminus assumed) showed an EC50 of over 0.1 nM.

As to `CC[C@H](C)[C@H](NC(=O)[C@H](CO)NC(=O)[C@H](Cc1ccc(O)cc1)NC(=O)[C@H](CC(=O)O)NC(=O)[C@H](CO)NC(=O)[C@@H](NC(=O)[C@H](Cc1ccccc1)NC(=O)[C@@H](NC(=O)CNC(=O)[C@H](CCC(=O)O)NC(=O)C(C)(C)NC(=O)[C@@H](N)Cc1ccc(O)cc1)[C@@H](C)O)[C@@H](C)CC)C(=O)N[C@@H](C)C(=O)N[C@@H](CC(C)C)C(=O)N[C@@H](CC(=O)O)C(=O)N[C@@H](CCCNC(=N)N)C(=O)N[C@H](C(=O)N[C@@H](Cc1c[nH]cn1)C(=O)N[C@@H](CCC(N)=O)C(=O)N[C@@H](CCC(=O)O)C(=O)N[C@@H](CC(=O)O)C(=O)N[C@@H](Cc1ccccc1)C(=O)N[C@H](C(=O)N[C@@H](CC(N)=O)C(=O)N[C@@H](Cc1c[nH]c2ccccc12)C(=O)N[C@@H](CC(C)C)C(=O)N[C@@H](CC(C)C)C(=O)N[C@@H](C)C(=O)N[C@@H](CCC(N)=O)C(=O)N[C@@H](CCCCN)C(=O)NCC(=O)O)C(C)C)[C@@H](C)CC` [Sequence 12] (H-Y[Aib]EGTFISDYSIALDRIHQEDFVNWLLAQKG-OH; N-terminus and C-terminus assumed), the EC50 was over 0.1 nM.

`CC[C@H](C)[C@H](NC(=O)[C@H](CO)NC(=O)[C@H](Cc1ccc(O)cc1)NC(=O)[C@H](CC(=O)O)NC(=O)[C@H](CO)NC(=O)[C@@H](NC(=O)[C@H](Cc1ccccc1)NC(=O)[C@@H](NC(=O)CNC(=O)[C@H](CCC(=O)O)NC(=O)C(C)(C)NC(=O)[C@@H](N)Cc1ccc(O)cc1)[C@@H](C)O)[C@@H](C)CC)C(=O)N[C@@H](C)C(=O)N[C@@H](CC(C)C)C(=O)N[C@@H](CC(=O)O)C(=O)N[C@@H](CCCNC(=N)N)C(=O)N[C@H](C(=O)N[C@@H](Cc1c[nH]cn1)C(=O)N[C@@H](CCC(N)=O)C(=O)N[C@@H](CCC(N)=O)C(=O)N[C@@H](CC(=O)O)C(=O)N[C@@H](Cc1ccccc1)C(=O)N[C@H](C(=O)N[C@@H](CC(N)=O)C(=O)N[C@@H](Cc1c[nH]c2ccccc12)C(=O)N[C@@H](CC(C)C)C(=O)N[C@@H](CC(C)C)C(=O)N[C@@H](C)C(=O)N[C@@H](CCC(N)=O)C(=O)N[C@@H](CCCCN)C(=O)NCC(=O)O)C(C)C)[C@@H](C)CC` [Sequence 14] (H-Y[Aib]EGTFISDYSIALDRIHQQDFVNWLLAQKG-OH; N-terminus and C-terminus assumed) had an EC50 of over 0.1 nM.
